Entries after “also recorded” stand apart in the source; their conditions may differ.
What was measured:
Type in all cases: in vivo, rat
GALT-null rats [1] = assay: Qualitative visual scoring of cataracts (0-3 scale) in GALT null rats
From the text: Rats, with impaired GALT activity due to genetic modification (GALT null), were used as a model of galactosemia. This rat model mirrors human classic galactosemia in some important ways. The rats develop physical characteristics including cataracts follow exposure to galactose, growth abnormalities, and neurological/cognitive abnormalities, which mirror abnormalities in human patients and can be quantified. The rats also have biochemical characteristics that mirror human disease including elevated levels of galactose and galactose metabolites, including galactitol and Gal1), in blood and tissues. Rats were generated from heterozygote crosses (heterozygous M3 GALT null strain representing classic galactosemia). […] Aldose reductase inhibitor (Compound A or Compound B), suspended in Gerber formula, was administered orally at about 12-hour intervals (BID) at 1 mg inhibitor/gram pup weight (=1000 mg/kg) for each dose. Before use, drug was stored at −20° C. in a bottle or tubes wrapped in aluminum foil. Just before each feeding an aliquot of drug was re-suspended in formula, mixed well, and pipetted into individual tubes to be fed to the pups (volume calculated per pup weight measured that morning). All placebo and drug tubes of formula were warmed to 37° C. immediately before feeding. Placebo and drug were fed to pups by hand using a syringe and tubing. Pups receiving drug also were fed a small additional volume of Gerber formula that had been used to wash the tube and syringe immediately after the drug feeding. To motivate eating, pups were removed from their mother (to prevent nursing) and maintained in nests in a humidified incubator for about 2 hours at 35-37° C. prior to each feeding. […] In the first part of the study, cataracts were scored visually by a blinded rater on a 3 point scale, with zero being no cataracts present (absent), 1 being mild, 2 being moderate and 3 being severe cataracts present. In the second part of the study, eyes were dissected after euthanization, photographed via digital camera, and cataracts were quantified via software

GALT-null rats [2] = assay: Digital photographic quantification of cataracts in GALT null rats
From the text: Rats, with impaired GALT activity due to genetic modification (GALT null), were used as a model of galactosemia. This rat model mirrors human classic galactosemia in some important ways. The rats develop physical characteristics including cataracts follow exposure to galactose, growth abnormalities, and neurological/cognitive abnormalities, which mirror abnormalities in human patients and can be quantified. The rats also have biochemical characteristics that mirror human disease including elevated levels of galactose and galactose metabolites, including galactitol and Gal1), in blood and tissues. Rats were generated from heterozygote crosses (heterozygous M3 GALT null strain representing classic galactosemia). […] Just before each feeding an aliquot of drug was re-suspended in formula, mixed well, and pipetted into individual tubes to be fed to the pups (volume calculated per pup weight measured that morning). […] In the first part of the study, cataracts were scored visually by a blinded rater on a 3 point scale, with zero being no cataracts present (absent), 1 being mild, 2 being moderate and 3 being severe cataracts present. In the second part of the study, eyes were dissected after euthanization, photographed via digital camera, and cataracts were quantified via software

GALT-null rats [3] = assay: Metabolite levels (galactitol, galactose, Gal1P) by HPLC in liver, brain and plasma of GALT null rats
From the text: Rats, with impaired GALT activity due to genetic modification (GALT null), were used as a model of galactosemia. This rat model mirrors human classic galactosemia in some important ways. The rats develop physical characteristics including cataracts follow exposure to galactose, growth abnormalities, and neurological/cognitive abnormalities, which mirror abnormalities in human patients and can be quantified. The rats also have biochemical characteristics that mirror human disease including elevated levels of galactose and galactose metabolites, including galactitol and Gal1), in blood and tissues. Rats were generated from heterozygote crosses (heterozygous M3 GALT null strain representing classic galactosemia). […] Aldose reductase inhibitor (Compound A or Compound B), suspended in Gerber formula, was administered orally at about 12-hour intervals (BID) at 1 mg inhibitor/gram pup weight (=1000 mg/kg) for each dose. Before use, drug was stored at −20° C. in a bottle or tubes wrapped in aluminum foil. Just before each feeding an aliquot of drug was re-suspended in formula, mixed well, and pipetted into individual tubes to be fed to the pups (volume calculated per pup weight measured that morning). All placebo and drug tubes of formula were warmed to 37° C. immediately before feeding. Placebo and drug were fed to pups by hand using a syringe and tubing. Pups receiving drug also were fed a small additional volume of Gerber formula that had been used to wash the tube and syringe immediately after the drug feeding. To motivate eating, pups were removed from their mother (to prevent nursing) and maintained in nests in a humidified incubator for about 2 hours at 35-37° C. prior to each feeding. Separate syringes were used for placebo and drug. Pups were wrapped in fleece during feeding, which lasted about 2-5 minutes each. Lysates for metabolite analysis were prepared as follows: 50-100 mg pieces of previously frozen liver or brain were homogenized by grinding for 30 seconds using a Teflon micropestle and handheld micropestle motor (Kimble Chase Life Science and Research Products LLC) in 125 μl ice-cold HPLC-grade water. Metabolites were separated and quantified by HPLC (See, e.g., Daenzer, et al. Dis. Model Mech. 2016, 9(11):1375-1382)). Galactitol, inositol, and glucose were quantified using the same HPLC conditions described to quantify galactose by (Daenzer, 2016). Metabolite levels were normalized to the total area of peaks detected by the relevant column and elution run for that sample, minus the peaks that most distinguished homozygous M3/M3 samples from controls. Specifically, metabolites separated on the MA1 column (galactitol, inositol, galactose and glucose) were normalized to total peak area minus galactose and galactitol, and metabolites separated on the PA10 column (galactose-1P) were normalized to total peak area minus galactose and galactose-1P.

Structure (SMILES) | qualitative assessment of cataracts (scale of 0-3) (GALT-null rats [1]; day nine of life, versus placebo, FIG. 2A) | cataracts (qualitative initial study and digitally quantified follow-on study) (GALT-null rats [2]; GALT null rats, 1,000 mg/kg BID or 250 mg/kg BID in follow-on study) | reduction of brain galactitol levels compared to placebo (GALT-null rats [3]; day 9) [%] | reduction of liver galactitol levels compared to placebo (GALT-null rats [3]; day 9) [%] | reduction of brain galactitol levels compared to placebo (GALT-null rats [3]; day 15-18) [%] | reduction of liver galactitol levels compared to placebo (GALT-null rats [3]; day 15-18) [%] | qualitative assessment of cataracts (0-3 scale) (GALT-null rats [1]; day 10 of life, FIG. 2C) | qualitative assessment of cataracts (0-3 scale) (GALT-null rats [1]; day 22 of life, placebo average severity 1.5, FIG. 2D) | digital quantitative analysis of cataracts (score) (GALT-null rats [2]; GALT null rats, day 22 of life, FIG. 2B) | galactitol levels in liver, brain and plasma (GALT-null rats [3]; day 10 of life, FIG. 3A) | galactose levels (GALT-null rats [3]; day 10 of life, FIG. 3B) | Gal1P levels (GALT-null rats [3]; day 10 of life, FIG. 3C)
O=C(O)Cc1nn(Cc2nc3cc(C(F)(F)F)ccc3s2)c(=O)c2nccnc12 [Compound A] | no cataracts | reduced cataracts | 40 | 87 | 57 | 57 | – | – | – | – | – | –
O=C(O)Cc1nn(Cc2cc3cc(C(F)(F)F)ccc3s2)c(=O)c2cscc12 [Compound B] | – | – | – | – | – | – | had cataracts | did not have cataracts; also recorded: cataracts were not present | the same score as wild type rats | normal or near normal levels | did not further increase | did not further increase
